Measured values published in patent US8058009B2, “Target protein and target gene in drug designing and screening method” (Reverse Proteomics Research Institute Co., Ltd., priority 2004, dated 2011).
Blank lines part the entries; values can stand above or below the compound they belong to.

Legend:
[1] = target: T1, FLJ10889-derived protein (Homo sapiens, UniProt Q7L7V1, A496G/L459S/P686L/V123M); experiment: Biacore S51 surface plasmon resonance binding to FLJ10889-derived protein
T1 construct: made in house; host or cells: wheat germ cell-free synthesis system (PROTEIOS, Toyobo)
T1 sequence (Q7L7V1 1-743 V123M/L459S/A496G/P686L): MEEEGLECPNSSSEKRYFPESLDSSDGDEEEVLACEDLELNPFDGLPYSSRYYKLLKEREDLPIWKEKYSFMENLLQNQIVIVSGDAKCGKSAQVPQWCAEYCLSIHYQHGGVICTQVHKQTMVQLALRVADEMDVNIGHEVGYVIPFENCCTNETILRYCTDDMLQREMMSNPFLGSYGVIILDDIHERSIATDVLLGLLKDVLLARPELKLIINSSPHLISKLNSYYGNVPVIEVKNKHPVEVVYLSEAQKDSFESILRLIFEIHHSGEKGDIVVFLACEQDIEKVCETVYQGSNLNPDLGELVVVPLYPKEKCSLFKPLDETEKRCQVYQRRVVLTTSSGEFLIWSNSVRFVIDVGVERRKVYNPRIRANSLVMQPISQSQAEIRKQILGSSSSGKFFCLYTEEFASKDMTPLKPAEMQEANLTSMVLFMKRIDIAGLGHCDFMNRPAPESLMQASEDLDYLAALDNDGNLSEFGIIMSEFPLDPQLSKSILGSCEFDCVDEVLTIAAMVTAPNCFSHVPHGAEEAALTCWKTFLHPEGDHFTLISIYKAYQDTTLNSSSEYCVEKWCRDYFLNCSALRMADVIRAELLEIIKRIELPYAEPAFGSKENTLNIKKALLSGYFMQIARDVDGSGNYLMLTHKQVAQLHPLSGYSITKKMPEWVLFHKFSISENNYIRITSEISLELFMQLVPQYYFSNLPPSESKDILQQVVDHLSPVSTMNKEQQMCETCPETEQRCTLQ
Protocol: (§1) A desired gene of a human full-length cDNA clone was BP-reacted with the PCR cloning vector Gateway pDONR201 using the Invitrogen Gateway system per the kit protocol to yield an entry vector. […]
(§2) The surface of the CM5 sensor chip for S51 commercially available from Biacore Company was subjected to an NTA treatment with 1 M EDC, 1.33 M NHS and 16 mg/ml AB-NTA (pH 9.2) to prepare an NTA sensor chip for S51. […] A correction for the effect of DMSO contained in the compound solutions and running buffer (solvent correction) was performed on the basis of measured results from separately prepared solutions mimicking the running buffer, and containing 3.8 to 5.1% of DMSO (8 points). The compound characterization assay program for Biacore S51 was performed to measure the interactions between immobilized ligands (proteins) and analytes (compounds; 62.5 μM to 0.244 μM), and the results were analyzed using a dedicated software program. […]

[2] = target: T2, FLJ11045-derived protein (Homo sapiens, UniProt Q9BXT8, E1380K); experiment: Biacore S51 surface plasmon resonance binding to FLJ11045-derived protein
T2 construct: made in house; host or cells: wheat germ cell-free synthesis system (PROTEIOS, Toyobo)
T2 sequence (Q9BXT8 949-1581 isoform Q9BXT8-4 E1338K): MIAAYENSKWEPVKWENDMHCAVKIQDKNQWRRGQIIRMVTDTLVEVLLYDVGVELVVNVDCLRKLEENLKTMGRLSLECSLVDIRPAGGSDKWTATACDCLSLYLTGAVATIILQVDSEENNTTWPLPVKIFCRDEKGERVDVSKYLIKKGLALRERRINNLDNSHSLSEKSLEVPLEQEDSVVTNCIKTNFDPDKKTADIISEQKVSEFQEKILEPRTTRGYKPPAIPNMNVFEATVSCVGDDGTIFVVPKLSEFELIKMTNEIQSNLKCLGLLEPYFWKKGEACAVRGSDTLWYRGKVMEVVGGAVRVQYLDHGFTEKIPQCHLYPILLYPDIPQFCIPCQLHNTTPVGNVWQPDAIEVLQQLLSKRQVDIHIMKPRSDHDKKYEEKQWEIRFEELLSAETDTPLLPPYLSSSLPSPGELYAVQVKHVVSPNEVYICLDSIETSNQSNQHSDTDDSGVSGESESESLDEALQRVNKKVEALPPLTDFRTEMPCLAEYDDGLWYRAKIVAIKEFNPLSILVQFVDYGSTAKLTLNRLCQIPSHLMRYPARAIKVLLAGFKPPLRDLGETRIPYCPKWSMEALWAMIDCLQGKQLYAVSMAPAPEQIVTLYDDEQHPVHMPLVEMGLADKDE
Source text: A desired gene of a human full-length cDNA clone was BP-reacted with the PCR cloning vector Gateway pDONR201 using the Invitrogen Gateway system per the kit protocol to yield an entry vector. As the destination vector for the Gateway system, a Gateway cassette having a Gateway recombinant sequence was introduced to allow the utilization of the Gateway system on the basis of pEU3-NII (Toyobo), which matches with a cell-free protein synthesis system (PROTEIOS) of Toyobo Co., Ltd., which employs a wheat germ extract, and a double tag destination vector modified using the PCR method to allow the expression of a peptide having a histidine tag and a FLAG tag sequence in the N-terminal region of the expressed protein was prepared.
The prepared double tag destination vector and entry vector were […] using the Invitrogen Gateway system per the protocol and the Escherichia coli competent cell DH5α was transformed therewith; a clone incorporating the expression vector was selected. A plasmid was prepared from the obtained clone using the QIAfilter Midi kit (QUIAGEN) per the kit protocol. The plasmid obtained was subjected to phenol/chloroform treatment per the protocol for PROTEIOS (Toyobo) to inactivate the RNase to yield a purified expression plasmid.
A recombinant protein was synthesized using a cell-free protein synthesis system (PROTEIOS) of Toyobo Co., Ltd., which employs a wheat germ extract. Subsequently, mRNA was prepared from the expression plasmid acquired by the method described in section 1 above per the protocol for PROTEIOS. With 20 μg of the mRNA acquired, a protein was synthesized per the protocol for PROTEIOS using two wells of a 96-well microtiter plate. The protein synthesized was subjected to high-speed centrifugation, the precipitate was removed, and the resulting soluble fraction was purified using ANTI-FLAG M2 Affinity Gel (SIGMA Company) having an anti-FLAG tag antibody immobilized hereto per the protocol, to yield a purified protein.
as §2

[3] = test system: mutant SOD-transgenic mouse showing ALS-like symptoms; details: intraperitoneally administered; cited from earlier work
[4] = target: T3, FLJ14583-derived protein (Homo sapiens, UniProt Q12816); experiment: Biacore S51 surface plasmon resonance binding to FLJ14583-derived protein
T3 construct: made in house; host or cells: wheat germ cell-free synthesis system (PROTEIOS, Toyobo)
T3 sequence (Q12816 1-706 isoform Q12816-2): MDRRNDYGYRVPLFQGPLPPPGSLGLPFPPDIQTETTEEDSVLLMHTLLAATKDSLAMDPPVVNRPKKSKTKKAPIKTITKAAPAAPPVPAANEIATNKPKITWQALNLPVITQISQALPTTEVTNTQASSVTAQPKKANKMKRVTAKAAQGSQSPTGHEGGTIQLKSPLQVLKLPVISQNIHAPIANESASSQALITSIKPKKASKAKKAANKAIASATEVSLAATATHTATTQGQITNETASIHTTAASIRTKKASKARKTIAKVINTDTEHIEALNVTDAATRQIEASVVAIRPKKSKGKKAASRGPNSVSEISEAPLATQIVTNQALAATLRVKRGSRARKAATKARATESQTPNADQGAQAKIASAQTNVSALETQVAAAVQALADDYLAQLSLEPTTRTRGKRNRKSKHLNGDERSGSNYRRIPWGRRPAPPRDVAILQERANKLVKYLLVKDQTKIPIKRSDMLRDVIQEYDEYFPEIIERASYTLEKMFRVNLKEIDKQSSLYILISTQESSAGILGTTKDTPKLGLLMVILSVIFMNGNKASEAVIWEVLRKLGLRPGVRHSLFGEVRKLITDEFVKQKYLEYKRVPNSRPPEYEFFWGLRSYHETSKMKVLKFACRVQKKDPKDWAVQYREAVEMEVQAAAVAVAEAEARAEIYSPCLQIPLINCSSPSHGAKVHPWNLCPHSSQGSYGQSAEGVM
Protocol: as §1, §2

[5] = target: T4, FLJ10335-derived protein (Homo sapiens, UniProt Q9NW38, S77P); experiment: Biacore S51 surface plasmon resonance binding to FLJ10335-derived protein
T4 construct: made in house; host or cells: wheat germ cell-free synthesis system (PROTEIOS, Toyobo)
T4 sequence (Q9NW38 1-375 S77P): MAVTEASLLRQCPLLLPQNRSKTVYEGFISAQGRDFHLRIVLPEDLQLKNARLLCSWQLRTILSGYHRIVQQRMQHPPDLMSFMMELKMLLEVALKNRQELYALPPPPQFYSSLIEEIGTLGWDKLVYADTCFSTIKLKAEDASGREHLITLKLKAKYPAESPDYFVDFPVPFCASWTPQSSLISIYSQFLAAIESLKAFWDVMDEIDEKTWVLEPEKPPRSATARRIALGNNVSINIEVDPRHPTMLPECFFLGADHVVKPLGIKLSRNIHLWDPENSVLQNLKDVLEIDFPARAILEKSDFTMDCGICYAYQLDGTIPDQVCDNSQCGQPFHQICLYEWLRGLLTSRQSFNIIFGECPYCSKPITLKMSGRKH
Protocol: as §1, §2

[6] = target: T5, FLJ12502-derived protein (Homo sapiens, UniProt Q7Z3D6); experiment: Biacore S51 surface plasmon resonance binding to FLJ12502-derived protein
T5 construct: made in house; host or cells: wheat germ cell-free synthesis system (PROTEIOS, Toyobo)
T5 sequence (Q7Z3D6 29-616): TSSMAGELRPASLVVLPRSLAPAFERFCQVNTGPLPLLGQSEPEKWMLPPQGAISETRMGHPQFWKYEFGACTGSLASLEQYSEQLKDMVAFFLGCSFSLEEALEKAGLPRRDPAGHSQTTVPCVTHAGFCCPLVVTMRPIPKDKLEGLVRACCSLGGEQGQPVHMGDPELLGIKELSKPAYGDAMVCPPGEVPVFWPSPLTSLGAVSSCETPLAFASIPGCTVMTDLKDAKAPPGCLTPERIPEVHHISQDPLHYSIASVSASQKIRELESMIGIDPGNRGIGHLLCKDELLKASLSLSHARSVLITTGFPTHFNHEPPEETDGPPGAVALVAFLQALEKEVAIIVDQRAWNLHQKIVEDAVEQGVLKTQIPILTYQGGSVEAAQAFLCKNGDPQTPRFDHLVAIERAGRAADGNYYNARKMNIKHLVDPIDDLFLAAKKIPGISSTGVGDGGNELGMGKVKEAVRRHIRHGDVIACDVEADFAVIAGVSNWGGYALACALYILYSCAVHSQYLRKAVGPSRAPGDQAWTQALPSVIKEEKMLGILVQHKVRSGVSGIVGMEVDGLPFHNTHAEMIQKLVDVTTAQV
Protocol: as §1, §2

SMILES: CC[C@@]1(O)C[C@H](O[C@H]2C[C@H](N(C)C)[C@H](O[C@H]3C[C@H](O)[C@H](O[C@H]4CCC(=O)[C@H](C)O4)[C@H](C)O3)[C@H](C)O2)c2c(cc3c(c2O)C(=O)c2c(O)cccc2C3=O)[C@H]1C(=O)OC [aclarubicin]
interaction with the protein (binding level dose-proportional, saturated at high doses) [1]: interact specifically

SMILES: CC1=C(C(=O)O)N2C(=O)[C@@H](NC(=O)[C@H](N)c3ccc(O)cc3)[C@H]2SC1 [cefadroxil]
Kd ([2]; Biacore S51, immobilized FLJ11045-derived protein, analyte 62.5 μM to 0.244 μM, read-out: binding dissociation constant Kd): 11.5 µM
interaction with the protein (binding level dose-proportional, saturated at high doses) ([2]; FLJ11045-derived protein, Biacore S51): interact specifically

SMILES: CO/N=C(\C(=O)N[C@@H]1C(=O)N2C(C(=O)O)=C(CSc3nc(=O)c(=O)[nH]n3C)CS[C@H]12)c1csc(N)n1 [ceftriaxone]
expression of GLT1 in the spinal cord [3]: increased
muscle strength [3]: increase in the muscle strength
neuron number [3]: recovery of neuron number

SMILES: Cc1onc(-c2c(Cl)cccc2Cl)c1C(=O)N[C@@H]1C(=O)N2[C@@H]1SC(C)(C)[C@@H]2C(=O)O [dicloxacillin]
Kd ([4]; Biacore S51, immobilized FLJ14583-derived protein, analyte 62.5 μM to 0.244 μM, read-out: binding dissociation constant Kd): 23 µM
interaction with the protein (binding level dose-proportional, saturated at high doses) ([4]; FLJ14583-derived protein, Biacore S51): interact specifically

Further lines, results first:

interaction with the protein (binding level dose-proportional, saturated at high doses) [5]: interact specifically
SMILES: CC(C)C[C@H](NC(=O)[C@@H](O)[C@H](N)Cc1ccccc1)C(=O)O [ubenimex]

interaction with the protein (binding level dose-proportional, saturated at high doses) [6]: interact specifically
SMILES: C[C@H]1[C@H](C)CC[C@]2(C(=O)O)CC[C@]3(C)C(=CC[C@@H]4[C@@]5(C)CC[C@H](O)C(C)(C)[C@@H]5CC[C@]43C)[C@H]12 [ursolic acid]
